The source of these data is patent US9180217B2, “Sterilization system and device” (priority 2004, dated 2015).

Experiment [1] concerns Bacillus subtilis. Briefly: Pressure vessel NO sterilization of dipped stainless steel strips. The conditions noted are these: Five Minute Sterilization Cycle, NO gas at atmospheric pressure. Format: cell-based, Bacillus subtillis var niger 9372. The text has this:
(§1) A glass pressure vessel is connected to a scrubbed NO gas tank source. The pressure vessel is purged five times with Argon gas to eliminate atmospheric oxygen (preventing formation of NO2•) and an additional three purges of NO are used to ensure a pure NO atmosphere and consistent results of bactericidal activity. To test the sterilization method: Bacillus subtillis var niger 9372 is used (after obtaining >80% endospore formation; a standard for ethylene oxide and autoclave test sterilization), as well as organisms commonly found on the epidermis: Staphylococcus aureus (strain 21769) and Staphylococcus epidermides (strain 21977), and the enteric organisms: Klebsiella pneumoniae (strain 21991) and Serratia marcesens (strain 21140). This particular Serratia strain has been found in previous studies to be one of the most resistant bacteria to the bactericidal effects of NO in culture. See, Raulli R et al., Recent Res Devel Microbiol 6: 177-183, 2002, the entire contents of which is incorporated by reference herein.
(§2) The organisms are cultured overnight in brain heart infusion BHI. […]
(§3) The sealed vessel is carefully opened in a laminar flow hood after all the NO had been purged with Argon. […] The samples are observed (digitally photographed) 24 hrs later, placed back in the waterbath and are measured for absorbance 72 hrs later. […]

Experiment [2] deals with Serratia marcesens. The description is as above. Conditions: Five Minute Sterilization Cycle, NO gas at atmospheric pressure. Format: cell-based, Serratia marcesens (strain 21140).
Source text: as §1, §2, §3

The test system of experiment [3] is Staphylococcus epidermides. Described as above. Format: cell-based, Staphylococcus epidermides (strain 21977). Conditions: Five Minute Sterilization Cycle, NO gas at atmospheric pressure.
Source text: as §1, §2, §3

Experiment [4] has as its system Klebsiella pneumoniae. The description is as above. The conditions noted are these: Five Minute Sterilization Cycle, NO gas at atmospheric pressure. Format: cell-based, Klebsiella pneumoniae (strain 21991).
Source text: as §1, §2, §3

In experiment [5] the test system is Staphylococcus aureus. The experiment is described as above. Format: cell-based, Staphylococcus aureus (strain 21769). Conditions: Five Minute Sterilization Cycle, NO gas at atmospheric pressure.
Source text: as §1, §2, §3

For experiment [6], the system named is Bacillus subtilis (spore). Briefly: Portable system (blood storage container, diazeniumdiolate plus acidic buffer) sterilization of stainless steel strips. In kind it is cell-based, B. subtilis (endosporulated). Conditions: Fifteen Minute Sterilization Cycle; stainless steel strip. From the text: (§4) Similar to Example 1, a portable system is devised using blood storage containers and other laboratory items. In this construct, a blood storage container (Nexell, Irvine, Calif.; Lifecell PL732 plastic tissue culture flask) serves as the sterilization chamber. It has multiple ports, is easily attached to tubing or other chambers, and is easily cut and heat sealed for insertion and removal of contaminated/sterilized samples. The heat seal is strong and holds well at pressure, even though 1 ATM of pressure is used experimentally. Two 60 ml syringes connected to each other and a line of tubing by a three-way stopcock are employed to mix acidic buffer in one syringe with NO-releasing diazeniumdiolate in the other syringe. The tubing is connected to the blood container/sterilization chamber.
(§5) The stopcock is turned so that the acidic buffer can be added to the syringe containing the diazeniumdiolate. The valve is immediately closed to the buffer syringe and opened to the sterilization chamber. The 300 cc sterilization chamber inflates in about 15 seconds. Experiments are performed as described above, except that the devised system is used instead of the pressure vessel.
(§6) The test organisms are cultured overnight in BHI. The cultures contained at least 10^8 CFU/ml (100-fold greater than FDA testing guidelines) based on standardized ABS595 curves for each organism. […]

The test system of experiment [7] is Bacillus subtilis. The description is as above. Format: cell-based, B. subtilis (vegetative). The conditions noted are these: Fifteen Minute Sterilization Cycle; stainless steel strip.
Source text: as §4, §5, §6

In experiment [8] the test system is Staphylococcus epidermides. Described as above. The conditions noted are these: Fifteen Minute Sterilization Cycle; stainless steel strip. In kind it is cell-based, S. epidermides.
Source text: as §4, §5, §6

Experiment [9] concerns Serratia marcesens. The experiment is described as above. In kind it is cell-based, S. marcesens. Conditions: Fifteen Minute Sterilization Cycle; stainless steel strip.
Source text: as §4, §5, §6

The subject of experiment [10] is bacterial cocktail containing B. subtilis, S. marcesens, and S. epidermides. Briefly: Sterilization of medical materials (tubing, needle). Format: cell-based. Conditions: 15 min Sterilization Cycle. As to the method: In this Example, the sterilization of medically relevant materials, such as needles and plastic tubing, is tested. Teflon (⅛′ ID), polyethylene (1.77 mm ID), vinyl (0.5 mm ID) tubing and a 30 gauge disposable needle are dipped in a bacterial cocktail containing B. subtilis, S. marcesens, and S. epidermides at about 10^8 total CFU/ml The samples are placed in the sterilization chamber and sealed. In each case, the lumen (the inner open space or cavity within the tubing) of the tubing or the needle contained at least some visually confirmed inoculum. […] The controls for each material reached at least 10^6 total CFU/ml in 24 hrs as determined by ABS595 standardization curves.

Experiment [11] deals with Bacillus stearothemophilus spores (ATCC 7953). Briefly: Spore studies in lumens (wire biological indicators, resistometer). In kind it is cell-based. Conditions: 5 min, 23° C., NO then air. As to the method:
The ability of the nitrogen oxide gases to penetrate an inner open space or cavity within a tube (i.e., a lumen) and inactivate spores in the lumen is evaluated. The spores used are those that are most resistant to the nitrogen oxide gases.
The following configuration of lumens are tested:
(a) 17″ stainless (SS) tubes having a 2.5 mm inner diameter (I.D.), bent in “U” shape
(b) 60″ polyethylene (PE) tube having a 4.5 mm ID, coiled and in Tyvek pouch
(c) 60″ PE tube having a 4.5 mm ID and a 1.5 mm outer diameter (O.D.) PEEK tube inside, coiled and in Tyvek pouch
Wire biological indicators are inoculated with 10^6 Bacillus stearothemophilus spores (ATCC 7953), (Raven Lot 3W67583) and placed at the center point of the tube in each of these configurations. The coiled polyethylene tubes were then heat-sealed in a TYVEK sterilization pouch.
Separately, each of the lumen samples are tested. The stainless steel tube (triplicate samples: SS-1, SS-2, and SS-3), the polyethylene tube, and the polyethylene tube with the PEEK catheter were each placed in a resistometer and exposed to the following gas cycle for 5 minutes at 23° C. This gas cycle is defined as follows: […]
The sterilization chamber/resistometer is evacuated and held at vacuum for 2 minutes. NO gas is then added to the sterilization chamber until the vacuum is decreased by 1″Hg. This condition is maintained for 2 minutes. Are is then added until the chamber reaches atmospheric pressure and the condition is held for 5 minutes.

Take `[N]=O` [NO, nitric oxide]: the “trials showing no bacterial growth (Killed)” value in experiment [1], in [2], in experiment [3], in experiment [4] and in experiment [5] was 3/3 Killed throughout. In addition, the “trials Killed” value in experiment [6] was 2/2; in experiment [7], 2/2; in [8], 3/3 Killed; in experiment [9], 3/3 Killed; in experiment [10] (Disposable Needle 30 gauge), 2/2 Killed; in [10] (Polyethylene Tubing 1.77 mm ID), 2/2 Killed. Further, the “trials Killed” value in experiment [10] (Teflon Tubing 1/8′ ID) and in experiment [10] (Vinyl Tubing 0.5 mm ID) was 2/2 Killed throughout. The “spore condition (Dead/Live) after 14 days of incubation” value was “Dead” in [11] ((a) SS-1, 17″ stainless tube 2.5 mm I.D.); “Dead” in experiment [11] ((a) SS-2, 17″ stainless tube 2.5 mm I.D.); “Dead” in experiment [11] ((a) SS-3, 17″ stainless tube 2.5 mm I.D.); “Dead” in experiment [11] ((b) PE Sheath, 60″ polyethylene tube 4.5 mm ID in Tyvek pouch); “Dead” in experiment [11] ((c) PE Sheath with Catheter (PEEK tube inside) in Tyvek pouch).
